We go through 28 compounds from publication PMC9822073, “Synthesis, Cytotoxic Evaluation, and Structure-Activity Relationship of Substituted Quinazolinones as Cyclin-Dependent Kinase 9 Inhibitors” (Molecules, 2022).

The target of one data set is CDK9/cyclin T (Homo sapiens, UniProt P50750). Description: In vitro luminescent CDK9 kinase assay (Kinase-Glo MAX). The format is biochemical. Particulars: for reduction in CDK9 inhibitory activity: compared with compound 25. As to the method:
In vitro luminescent CDK9 kinase assay was performed as reported previously using Kinase- Glo® MAX as a detection reagent. Briefly, 5 μL of each inhibitor in concentrations ranging from 10 μM to 1 nM (10 μM, 1 μM, 0.1 μM, 0.01 μM, and 0.001 μM) and 10 μL of enzyme substrate were mixed in 20 μL of kinase assay buffer (obtained from BPS Bioscience, catalog #79334) at room temperature. Then 20 μL of 5 ng/μL CDK9/cyclin T was added to the mixture to initiate the reaction. After 45 min, 50 μL of Kinase-Glo® Max reagent was added, and the resulting mixture was incubated for 15 min at room temperature. The chemiluminescence was measured microplate reader, and IC50 values were calculated using Prism 8.0 (GraphPad Software, San Diego, CA, USA).

A further data set deals with MCF-7 cell line. Briefly: MTT metabolic (antiproliferative) assay. Particulars: read-out: Cytotoxicity IC50, MCF-7, 48 h, mean ± SD.
For a further data set, the system named is CDK9. On the set-up: method as in PMID 33142413, PMID 24150998. The settings on record: Figure 2; cited from earlier work.
Where [1] appears, read: CDK9 IC50 as used for LE and LLE, read-out: IC50 (CDK9, Table 4).
[2] abbreviates: negative log of the CDK9 IC50, read-out: pIC50 (converted).

Where two headings read alike, the source gives them in different places.

Sequence of CDK9/cyclin T (P50750 whole entry): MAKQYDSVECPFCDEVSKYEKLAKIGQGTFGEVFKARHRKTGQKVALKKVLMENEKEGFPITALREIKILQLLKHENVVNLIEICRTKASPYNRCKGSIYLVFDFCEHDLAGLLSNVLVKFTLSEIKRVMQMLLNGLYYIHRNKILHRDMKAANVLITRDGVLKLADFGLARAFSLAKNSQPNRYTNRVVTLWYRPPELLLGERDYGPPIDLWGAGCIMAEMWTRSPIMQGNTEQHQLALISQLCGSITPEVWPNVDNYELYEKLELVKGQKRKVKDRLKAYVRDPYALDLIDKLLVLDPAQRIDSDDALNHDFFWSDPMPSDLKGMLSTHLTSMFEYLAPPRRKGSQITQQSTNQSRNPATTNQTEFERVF
Sequence of CDK9/cyclin T (O60563 whole entry partner): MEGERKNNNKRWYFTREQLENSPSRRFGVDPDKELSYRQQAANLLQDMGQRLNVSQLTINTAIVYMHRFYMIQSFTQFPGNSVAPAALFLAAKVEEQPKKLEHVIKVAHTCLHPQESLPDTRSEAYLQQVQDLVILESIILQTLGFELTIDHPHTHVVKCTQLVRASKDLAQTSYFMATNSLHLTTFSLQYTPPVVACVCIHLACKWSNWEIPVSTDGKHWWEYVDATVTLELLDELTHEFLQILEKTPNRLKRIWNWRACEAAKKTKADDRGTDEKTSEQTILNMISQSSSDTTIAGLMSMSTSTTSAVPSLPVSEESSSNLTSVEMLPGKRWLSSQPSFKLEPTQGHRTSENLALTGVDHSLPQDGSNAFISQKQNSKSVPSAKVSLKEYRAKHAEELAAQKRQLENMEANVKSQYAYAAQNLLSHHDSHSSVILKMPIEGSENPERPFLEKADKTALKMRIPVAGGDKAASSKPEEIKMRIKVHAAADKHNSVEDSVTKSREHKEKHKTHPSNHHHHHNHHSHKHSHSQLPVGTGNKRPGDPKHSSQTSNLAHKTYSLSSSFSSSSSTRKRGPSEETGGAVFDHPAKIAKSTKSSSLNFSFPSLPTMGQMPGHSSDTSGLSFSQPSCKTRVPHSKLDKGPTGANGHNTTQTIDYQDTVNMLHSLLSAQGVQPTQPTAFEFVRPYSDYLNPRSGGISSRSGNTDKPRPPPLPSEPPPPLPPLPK
Method for MCF-7 cell line: The antiproliferative activity of the twenty-seven compounds was evaluated by 3-(4,5-dimethylthiazol-2-yl)-2,5-diphenyltetrazolium bromide (MTT) metabolic assay against the MCF-7 cell line, according to a previous method [26].

For `NS(=O)(=O)c1ccc(CCn2c(SCC(=O)Nc3ccc(Br)cc3)nc3ccccc3c2=O)cc1` [Compound 9], the IC50 on CDK9/cyclin T (setting [1]) is 131 nM; at CDK9/cyclin T (mean ± SD, read-out: CDK9 IC50), 131 ± 2 nM; in the data set with MCF-7 cell line it was 1720 ± 260 nM.

Take `CC(=O)c1ccc(NC(=O)CSc2nc3ccccc3c(=O)n2CCc2ccc(S(N)(=O)=O)cc2)cc1` [Compound 5]: the IC50 is 829 nM at CDK9/cyclin T (setting [1]); 829 ± 14 nM on CDK9/cyclin T (mean ± SD, read-out: CDK9 IC50); 180 ± 90 nM in the data set with MCF-7 cell line.

Take `NS(=O)(=O)c1ccc(CCn2c(SCC(=O)Nc3ccccc3)nc3ccccc3c2=O)cc1` [Compound 3]: the IC50 was found to be 421 nM on CDK9/cyclin T (setting [1]); 421 ± 6 nM at CDK9/cyclin T (mean ± SD, read-out: CDK9 IC50); 820 ± 80 nM in the data set with MCF-7 cell line.

As to `Cc1ccc2nc(-c3cccc(Br)c3)n(N)c(=O)c2c1` [Compound 27, 3-Amino-2-(3-bromophenyl)-6-methylquinazolin-4(3H)-one], the IC50 on CDK9/cyclin T (setting [1]) came out at 835 nM; at CDK9/cyclin T (mean ± SD, read-out: CDK9 IC50), 835 ± 6 nM; in the data set with MCF-7 cell line, 28700 ± 920 nM. Also, on CDK9/cyclin T, the “reduction in CDK9 inhibitory activity” value is reported as “approximately 6 fold”.

For `CN1CC[C@H](c2c(O)cc(O)c3c(=O)cc(-c4ccccc4Cl)oc23)[C@H](O)C1` [Flavopiridol, flavopiridol, reference compound], the IC50 with MCF-7 cell line was 40 ± 1 nM.

Consider `Cc1ccc2nc(-c3cccc(Br)c3)n(O)c(=O)c2c1` [Compound 28, 2-(3-Bromophenyl)-3-hydroxy-6-methylquinazolin-4(3H)-one], for which the IC50 on CDK9/cyclin T (mean ± SD, read-out: CDK9 IC50) is 210 ± 2 nM; on CDK9/cyclin T (setting [2]), 209 nM; with MCF-7 cell line, 6270 ± 200 nM.

With `O=c1[nH]c(-c2ccc(Cl)cc2)nc2ccc([N+](=O)[O-])cc12` [Compound 20], the IC50 on CDK9/cyclin T (setting [1]) worked out at 434 nM; at CDK9/cyclin T (mean ± SD, read-out: CDK9 IC50), 434 ± 3 nM; in the data set on MCF-7 cell line, 6070 ± 190 nM. Moreover, the “reduction in potency against CDK9” value at CDK9/cyclin T (compound 20 versus compound 19) was found to be 1 fold.

In the case of `CC(Sc1nc2ccccc2c(=O)n1CCc1ccc(S(N)(=O)=O)cc1)C(=O)Nc1ccc(Cl)cc1` (centres unmarked) [Compound 16], the IC50 on CDK9/cyclin T (mean ± SD, read-out: CDK9 IC50) is 350 ± 6 nM; on CDK9/cyclin T (setting [2]) it was 347 nM; with MCF-7 cell line, 730 ± 10 nM.

Turning to `Cc1ccc(NC(=O)CSc2nc3ccccc3c(=O)n2CCc2ccc(S(N)(=O)=O)cc2)cc1` [Compound 4], the IC50 on CDK9/cyclin T (setting [1]) is 788 nM; on CDK9/cyclin T (mean ± SD, read-out: CDK9 IC50) it was 788 ± 12 nM; in the data set on MCF-7 cell line, 160 ± 20 nM.

For the compound `NS(=O)(=O)c1ccc(CCn2c(=S)[nH]c3ccccc3c2=O)cc1` [Compound 1, 2-Mercapto-3-(4-sulfamoylphenethyl)quinazolin-4-one], the IC50 on CDK9/cyclin T (setting [1]) turned out to be 644 nM; at CDK9/cyclin T (mean ± SD, read-out: CDK9 IC50), 644 ± 7 nM; in the data set with MCF-7 cell line, 650 ± 150 nM.

Regarding `NC(=O)CSc1nc2ccccc2c(=O)n1CCc1ccc(S(N)(=O)=O)cc1` [Compound 2], the IC50 on CDK9/cyclin T (setting [1]) is 454 nM; on CDK9/cyclin T (mean ± SD, read-out: CDK9 IC50), 454 ± 6 nM; in the data set on MCF-7 cell line, 2310 ± 390 nM.

With `NS(=O)(=O)c1ccc(CCn2c(SCc3ccccc3)nc3ccccc3c2=O)cc1` [VI], the IC50 with CDK9 was 67000 nM.

Take `COc1ccc(CNC(=O)CSc2nc3ccccc3c(=O)n2CCc2ccc(S(N)(=O)=O)cc2)cc1` [Compound 13]: the IC50 on CDK9/cyclin T (setting [1]) came to 334 nM; at CDK9/cyclin T (mean ± SD, read-out: CDK9 IC50), 334 ± 6 nM; in the data set on MCF-7 cell line, 840 ± 150 nM.

Take `CC(Sc1nc2ccccc2c(=O)n1CCc1ccc(S(N)(=O)=O)cc1)C(=O)Nc1ccccc1` (centres unmarked) [Compound 15]: the IC50 is 444 nM at CDK9/cyclin T (setting [1]); 444 ± 7 nM at CDK9/cyclin T (mean ± SD, read-out: CDK9 IC50); 670 ± 180 nM in the data set with MCF-7 cell line.

The compound `Cc1ccc(NC(=O)c2cccc(Br)c2)c(C(=O)O)c1` [Compound 23, 2-(3-Bromobenzamido)-5-methylbenzoic acid] showed a melting point of 155 to 157 °C. The IC50 at CDK9/cyclin T (mean ± SD, read-out: CDK9 IC50) was 210 ± 3 nM. The IC50 at CDK9/cyclin T (setting [2]) was 209 nM. The IC50 with MCF-7 cell line stood at 11500 ± 370 nM.

For the compound `COc1cc(NC(=O)CSc2nc3ccccc3c(=O)n2CCc2ccc(S(N)(=O)=O)cc2)cc(OC)c1OC` [Compound 8], the IC50 at CDK9/cyclin T (setting [1]) worked out at 501 nM; on CDK9/cyclin T (mean ± SD, read-out: CDK9 IC50) it was 501 ± 9 nM; in the data set with MCF-7 cell line, 2480 ± 320 nM.

Take `Cc1ccc(-c2nc3ccc(Cl)cc3c(=O)[nH]2)cc1` [Compound 19]: the IC50 on CDK9/cyclin T (setting [1]) was 282 nM; at CDK9/cyclin T (mean ± SD, read-out: CDK9 IC50), 282 ± 3 nM; with MCF-7 cell line, 12300 ± 390 nM.

Regarding `NS(=O)(=O)c1ccc(CCn2c(SCC(=O)NCc3ccc(F)cc3)nc3ccccc3c2=O)cc1` [Compound 12], the IC50 on CDK9/cyclin T (setting [1]) is 218 nM; at CDK9/cyclin T (mean ± SD, read-out: CDK9 IC50), 218 ± 4 nM; in the data set with MCF-7 cell line it was 690 ± 230 nM.

Regarding `NS(=O)(=O)c1ccc(CCn2c(SCC(=O)Nc3ccc(F)cc3)nc3ccccc3c2=O)cc1` [Compound 11], the IC50 came out at 336 nM at CDK9/cyclin T (setting [1]); 336 ± 5 nM at CDK9/cyclin T (mean ± SD, read-out: CDK9 IC50); 3860 ± 780 nM with MCF-7 cell line.

Regarding `CCOc1ccc(NC(=O)CSc2nc3ccccc3c(=O)n2CCc2ccc(S(N)(=O)=O)cc2)cc1` [Compound 7], the IC50 turned out to be 115 nM at CDK9/cyclin T (setting [1]); 115 ± 2 nM on CDK9/cyclin T (mean ± SD, read-out: CDK9 IC50); 1570 ± 40 nM in the data set on MCF-7 cell line. The “increase of CDK9 inhibitory activity” value on CDK9/cyclin T (compared to the hit compound 1) is reported as “around 6 fold”.

As for `Cc1ccc2nc(-c3cccc(Br)c3)[nH]c(=S)c2c1` [Compound 26, 2-(3-Bromophenyl)-6-methylquinazoline-4(3H)-thione], the IC50 on CDK9/cyclin T (setting [1]) stood at 289 nM; at CDK9/cyclin T (mean ± SD, read-out: CDK9 IC50) it was 289 ± 2 nM; with MCF-7 cell line it was 5210 ± 170 nM. On CDK9/cyclin T, the “reduction in CDK9 inhibitory activity” value came to 2 fold.

For `COc1ccc(NC(=O)CSc2nc3ccccc3c(=O)n2CCc2ccc(S(N)(=O)=O)cc2)cc1` [Compound 6], the IC50 was 463 nM at CDK9/cyclin T (setting [1]); 463 ± 7 nM at CDK9/cyclin T (mean ± SD, read-out: CDK9 IC50); 4650 ± 1380 nM in the data set with MCF-7 cell line.

Take `COc1ccc(CNC(=O)CSc2nc3ccccc3c(=O)n2CCc2ccc(S(N)(=O)=O)cc2)cc1OC` [Compound 14]: the IC50 on CDK9/cyclin T (setting [1]) turned out to be 229 nM; on CDK9/cyclin T (mean ± SD, read-out: CDK9 IC50), 229 ± 4 nM; in the data set on MCF-7 cell line, 590 ± 100 nM.

Consider `O=c1[nH]cnc2ccc(I)cc12` [Compound 17], for which the IC50 at CDK9/cyclin T (setting [1]) was determined as 639 nM; at CDK9/cyclin T (mean ± SD, read-out: CDK9 IC50), 639 ± 4 nM; in the data set with MCF-7 cell line it was 3880 ± 120 nM.

As for `Cc1ccc2nc(-c3cccc(Br)c3)oc(=O)c2c1` [Compound 24, 2-(3-Bromophenyl)-6-methyl-4H-benzo[d][1,3]oxazin-4-one], the IC50 at CDK9/cyclin T (setting [1]) amounted to 486 nM; at CDK9/cyclin T (mean ± SD, read-out: CDK9 IC50), 486 ± 4 nM; in the data set with MCF-7 cell line, 10400 ± 330 nM. Also, the “reduction in CDK9 inhibitory activity” value at CDK9/cyclin T came out at 3 fold.

In the case of `NS(=O)(=O)c1ccc(CCn2c(SCC(=O)Nc3ccc(Cl)cc3)nc3ccccc3c2=O)cc1` [Compound 10], the IC50 at CDK9/cyclin T (setting [1]) was found to be 193 nM; on CDK9/cyclin T (mean ± SD, read-out: CDK9 IC50) it was 193 ± 3 nM; in the data set on MCF-7 cell line it was 1040 ± 70 nM.

Regarding `O=c1[nH]c(-c2cccs2)nc2ccc(I)cc12` [Compound 18], the IC50 turned out to be 296 nM on CDK9/cyclin T (setting [1]); 296 ± 3 nM on CDK9/cyclin T (mean ± SD, read-out: CDK9 IC50); 21400 ± 680 nM in the data set with MCF-7 cell line.

For `Cc1ccc2nc(-c3cccc(Br)c3)[nH]c(=O)c2c1` [Compound 25, 2-(3-Bromophenyl)-6-methylquinazolin-4(3H)-one], the IC50 at CDK9/cyclin T (setting [1]) came out at 142 nM; on CDK9/cyclin T (mean ± SD, read-out: CDK9 IC50), 142 ± 1 nM; in the data set on MCF-7 cell line, 16800 ± 540 nM.
